According to publication PMC5458547, “Discovery of first-in-class reversible dual small molecule inhibitors against G9a and DNMTs in hematological malignancies” (Nature Communications, 2017):
Where two headings read alike, the source gives them in different places.

Legend:
[1] = tested on: OCI-AML-2; assay: Cell proliferation assay (MTS); format: cell-based, human
[2] = target: T1, G9a (Homo sapiens, UniProt Q96KQ7); assay: G9a enzyme activity assay (TR-FRET); format: biochemical; settings: for IC50: TR-FRET, internally determined
T1 sequence (Q96KQ7 1-1210): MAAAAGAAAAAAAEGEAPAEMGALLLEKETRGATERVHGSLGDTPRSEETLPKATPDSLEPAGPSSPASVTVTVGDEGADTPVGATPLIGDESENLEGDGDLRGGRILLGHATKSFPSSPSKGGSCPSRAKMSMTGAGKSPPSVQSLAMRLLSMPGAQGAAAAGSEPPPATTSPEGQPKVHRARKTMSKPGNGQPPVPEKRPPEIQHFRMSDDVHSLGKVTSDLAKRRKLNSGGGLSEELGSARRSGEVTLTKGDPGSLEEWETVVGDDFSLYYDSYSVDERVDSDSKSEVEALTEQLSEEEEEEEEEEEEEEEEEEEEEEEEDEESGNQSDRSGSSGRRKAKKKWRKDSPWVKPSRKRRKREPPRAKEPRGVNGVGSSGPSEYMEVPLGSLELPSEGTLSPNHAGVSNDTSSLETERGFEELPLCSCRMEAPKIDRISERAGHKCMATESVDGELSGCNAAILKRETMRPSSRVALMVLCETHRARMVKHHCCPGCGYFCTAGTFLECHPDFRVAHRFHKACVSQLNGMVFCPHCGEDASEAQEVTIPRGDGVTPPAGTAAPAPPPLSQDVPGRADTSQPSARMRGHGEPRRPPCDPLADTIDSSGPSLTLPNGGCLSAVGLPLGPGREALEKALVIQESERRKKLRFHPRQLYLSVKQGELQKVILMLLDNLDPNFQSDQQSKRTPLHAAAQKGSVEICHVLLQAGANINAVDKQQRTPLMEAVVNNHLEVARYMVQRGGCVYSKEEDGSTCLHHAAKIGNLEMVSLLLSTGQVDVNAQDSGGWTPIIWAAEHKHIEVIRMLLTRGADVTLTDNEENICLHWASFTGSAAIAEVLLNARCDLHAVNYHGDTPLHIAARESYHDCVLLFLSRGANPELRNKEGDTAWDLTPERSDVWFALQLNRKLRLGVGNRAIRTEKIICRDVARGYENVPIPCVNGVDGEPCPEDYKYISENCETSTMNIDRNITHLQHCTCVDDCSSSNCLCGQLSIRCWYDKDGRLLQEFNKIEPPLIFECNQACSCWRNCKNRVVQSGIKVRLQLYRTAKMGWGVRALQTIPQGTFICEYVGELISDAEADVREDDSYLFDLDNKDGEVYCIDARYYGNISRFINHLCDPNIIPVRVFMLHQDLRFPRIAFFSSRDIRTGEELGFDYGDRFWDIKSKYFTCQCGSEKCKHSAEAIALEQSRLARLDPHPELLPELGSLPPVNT

[3] = tested on: CEMO-1; assay: Cell proliferation assay (MTS); format: cell-based, human; settings: 48 h
[4] = tested on: LAL-CUN-2; assay: Cell proliferation assay (MTS); format: cell-based; settings: Homo sapiens, 48 h
[5] = tested on: OCI-Ly3; assay: Cell proliferation assay (MTS); format: cell-based; settings: Homo sapiens
[6] = tested on: OCI-Ly10; assay: Cell proliferation assay (MTS); format: cell-based, human; settings: Homo sapiens, OCI-Ly10, 48 h
[7] = tested on: MV4-11; assay: Cell proliferation assay (MTS); format: cell-based; settings: Homo sapiens
[8] = target: T2, human DNMT1 enzyme (Homo sapiens, UniProt P26358); assay: DNMT1 enzyme activity assay (TR-FRET); format: biochemical; settings: internally determined
T2 construct: purchased

[9] = target: T3, DNMT1 catalytic domain (501-1632) (Homo sapiens, UniProt P26358); assay: SPR on immobilised DNMT1; format: binding
T3 construct: Flag (N); purchased
Description: We have indeed tried to measure the affinity of the reported compounds for DNMT1 using SPR. For that, we attempted SPR experiments using the two different DNMT1 protein constructs we can purchase: A full length DNMT1 with an N-terminal GST fusion, and a shorter construct containing the […]
First, we immobilized GST-tagged full length DNMT1 to a chip containing anti-GST antibody, but the amount immobilized was only 8% of the GST Ab chip capacity, and insufficient to detect binding of the ca. 500 Da compounds, presumably due to steric impediments resulting from the large size (dimer of 209 kDa monomers) of the GST-DNMT1 fusion protein. The theoretical SPR signal expected for the compounds binding with a 1:1 stoichiometry to the amount of protein immobilized (2300 RU) is only 5 response units (RU), with the precision of our BiacoreX100 SPR instrument typically being 1- […]
reference channels at 5 µM, indicating unspecific binding to the chip surface/Ab/GST, and very likely masking their possible direct binding to DNMT1. Compound injections at 200 µM […]
differential increase in the DNMT1 channel that indicates non-reversible binding with a high stoichiometry (responses of 81 and 65 RU, respectively; with 5 RU expected for a 1:1 binding), likely resulting from aggregation of the compounds at 200 µM concentration in the DNMT1 channel. […]
properly measured. […]

[10] = Homo sapiens, ALL, read-out: GI50
[11] = Homo sapiens, CEMO-1, 48 h, as used in apoptosis assay, read-out: GI50
[12] = OCI-Ly3, ABC-DLBCL, 48 h, read-out: GI50
[13] = ABC-DLBCL, 48 h, read-out: GI50
[14] = MV4-11, AML, 48 h, read-out: GI50
[15] = Homo sapiens, OCI-AML2, AML, 48 h, read-out: GI50

T2 sequence (P26358 whole entry): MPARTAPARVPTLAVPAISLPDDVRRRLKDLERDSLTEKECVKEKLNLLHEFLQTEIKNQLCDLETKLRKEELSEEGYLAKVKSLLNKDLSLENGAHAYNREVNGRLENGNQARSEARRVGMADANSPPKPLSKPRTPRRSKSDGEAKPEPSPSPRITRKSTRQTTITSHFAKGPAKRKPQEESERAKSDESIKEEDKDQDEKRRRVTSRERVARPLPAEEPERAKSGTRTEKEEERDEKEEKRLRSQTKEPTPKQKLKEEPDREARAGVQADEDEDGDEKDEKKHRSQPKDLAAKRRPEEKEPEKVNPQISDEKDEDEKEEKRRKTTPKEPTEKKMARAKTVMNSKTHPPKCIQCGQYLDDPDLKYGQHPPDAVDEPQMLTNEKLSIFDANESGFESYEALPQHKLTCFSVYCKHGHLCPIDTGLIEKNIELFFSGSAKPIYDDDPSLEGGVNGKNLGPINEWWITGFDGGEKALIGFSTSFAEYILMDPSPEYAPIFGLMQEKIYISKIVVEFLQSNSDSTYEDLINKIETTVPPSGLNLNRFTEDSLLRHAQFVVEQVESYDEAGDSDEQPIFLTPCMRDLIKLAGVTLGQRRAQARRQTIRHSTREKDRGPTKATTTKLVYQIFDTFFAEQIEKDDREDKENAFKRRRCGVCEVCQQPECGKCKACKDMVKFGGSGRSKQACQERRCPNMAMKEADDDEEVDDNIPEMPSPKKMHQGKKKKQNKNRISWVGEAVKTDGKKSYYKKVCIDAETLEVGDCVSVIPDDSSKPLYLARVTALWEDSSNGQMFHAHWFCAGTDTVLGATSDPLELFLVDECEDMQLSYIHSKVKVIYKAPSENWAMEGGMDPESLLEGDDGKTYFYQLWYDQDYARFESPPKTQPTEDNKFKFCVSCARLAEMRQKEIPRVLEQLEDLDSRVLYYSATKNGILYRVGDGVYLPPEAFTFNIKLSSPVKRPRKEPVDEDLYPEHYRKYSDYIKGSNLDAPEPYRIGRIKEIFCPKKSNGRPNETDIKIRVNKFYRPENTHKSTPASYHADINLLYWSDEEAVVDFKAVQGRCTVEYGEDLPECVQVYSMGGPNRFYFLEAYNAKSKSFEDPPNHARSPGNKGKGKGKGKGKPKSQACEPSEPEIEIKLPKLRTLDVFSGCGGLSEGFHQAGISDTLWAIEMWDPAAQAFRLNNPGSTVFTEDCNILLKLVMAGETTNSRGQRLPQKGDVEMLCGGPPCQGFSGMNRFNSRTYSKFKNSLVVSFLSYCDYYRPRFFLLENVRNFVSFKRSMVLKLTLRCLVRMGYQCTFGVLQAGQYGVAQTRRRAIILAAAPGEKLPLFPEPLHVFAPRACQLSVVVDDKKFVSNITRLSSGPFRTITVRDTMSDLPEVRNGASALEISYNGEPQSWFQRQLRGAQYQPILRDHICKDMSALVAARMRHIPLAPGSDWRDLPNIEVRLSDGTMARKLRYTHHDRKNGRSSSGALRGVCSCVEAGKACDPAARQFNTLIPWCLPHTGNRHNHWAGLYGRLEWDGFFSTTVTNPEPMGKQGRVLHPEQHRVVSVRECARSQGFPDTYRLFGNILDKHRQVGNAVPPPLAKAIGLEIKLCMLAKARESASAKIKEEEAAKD
T3 sequence (P26358 485-1616): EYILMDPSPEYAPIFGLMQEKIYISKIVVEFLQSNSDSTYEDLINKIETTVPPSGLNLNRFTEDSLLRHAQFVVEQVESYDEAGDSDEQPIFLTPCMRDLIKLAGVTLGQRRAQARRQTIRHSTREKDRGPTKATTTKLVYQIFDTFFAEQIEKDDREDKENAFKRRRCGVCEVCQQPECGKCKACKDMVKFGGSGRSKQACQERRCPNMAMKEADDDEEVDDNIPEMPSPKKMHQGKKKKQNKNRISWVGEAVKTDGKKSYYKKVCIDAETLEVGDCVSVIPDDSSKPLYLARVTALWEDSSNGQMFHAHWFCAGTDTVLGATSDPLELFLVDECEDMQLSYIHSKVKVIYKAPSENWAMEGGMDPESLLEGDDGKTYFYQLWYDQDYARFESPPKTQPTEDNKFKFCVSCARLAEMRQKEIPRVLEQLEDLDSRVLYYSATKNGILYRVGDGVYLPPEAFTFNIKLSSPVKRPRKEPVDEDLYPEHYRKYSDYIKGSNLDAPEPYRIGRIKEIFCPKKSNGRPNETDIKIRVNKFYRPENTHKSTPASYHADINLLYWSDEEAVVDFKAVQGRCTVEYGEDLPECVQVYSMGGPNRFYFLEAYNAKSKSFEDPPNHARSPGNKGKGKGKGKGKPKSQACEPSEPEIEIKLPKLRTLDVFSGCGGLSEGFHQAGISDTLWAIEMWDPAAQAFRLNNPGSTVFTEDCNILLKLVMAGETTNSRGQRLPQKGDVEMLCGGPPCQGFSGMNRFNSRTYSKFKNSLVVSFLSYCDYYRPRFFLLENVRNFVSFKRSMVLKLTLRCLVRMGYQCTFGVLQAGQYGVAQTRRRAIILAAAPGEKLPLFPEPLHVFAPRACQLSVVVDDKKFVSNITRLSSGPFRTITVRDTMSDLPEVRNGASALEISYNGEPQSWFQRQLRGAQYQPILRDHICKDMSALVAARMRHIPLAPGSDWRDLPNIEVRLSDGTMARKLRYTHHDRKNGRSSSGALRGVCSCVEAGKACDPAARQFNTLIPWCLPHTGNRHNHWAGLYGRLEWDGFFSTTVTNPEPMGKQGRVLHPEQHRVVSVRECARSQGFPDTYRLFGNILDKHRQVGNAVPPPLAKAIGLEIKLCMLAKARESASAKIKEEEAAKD

Question: How did the GI50 ([1]; OCI-AML-2, combination study set-up, read-out: GI50) turn out when `COc1cc2c(cc1OCCCN1CCCC1)N=C(N)C21CCC1` [A-366] was run?
Answer: Its GI50 is > 50 µM.

Question: With `Nc1ncn([C@@H]2O[C@H](CO)[C@@H](O)[C@H]2O)c(=O)n1` [Azacitidine, azacitidine] as the molecule, how does the IC50 [2] read?
Answer: The IC50 was > 10 µM.

Question: What about the GI50 [3, 10] of the same molecule?
Answer: Its GI50 is 3.96 µM.

Question: And the GI50 [3, 11]?
Answer: The GI50 was 7.7 µM.

Question: And the GI50 ([4]; ALL, read-out: GI50)?
Answer: Its GI50 is 21.2 µM.

Question: And the GI50 [5, 12]?
Answer: Its GI50 is 1.93 µM.

Question: And the GI50 [6, 13]?
Answer: Its GI50 is 2.6 µM.

Question: What about the GI50 [7, 14] of the same molecule?
Answer: Its GI50 is 5.56 µM.

Question: And the GI50 [1, 15]?
Answer: The GI50 was > 10 µM.

Question: What does the source list for `COc1cc2nc(N3CCCN(C)CC3)nc(NC3CCN(Cc4ccccc4)CC3)c2cc1OC` [BIX-01294]?
Answer: IC50 [8]: > 10 µM; GI50 [3, 10]: 2.91 µM; GI50 [3, 11]: 2.9 µM; GI50 ([4]; ALL, read-out: GI50): 5.94 µM; GI50 [5, 12]: > 4 µM; GI50 [6, 13]: > 4 µM; GI50 [7, 14]: 11.9 µM; GI50 [1, 15]: 6.32 µM

Question: With `COc1cc2c(OC3CCN(C)CC3)cc(-c3ccc(C)o3)nc2cc1OCCCN1CCCC1` [CM-1021, 6-methoxy-2-(5-methyl-2-furyl)-4-[(1-methyl-4-piperidyl)oxy]-7-(3-pyrrolidin-1-ylpropoxy)quinoline] as the molecule, how does the “reduction of primary activity (4-oxyquinoline vs 4-aminoquinoline)” value ([2]; secondary amine replaced by ether) read?
Answer: The value was “more than 2.5 log units”.

Question: How did the IC50 [2] turn out when `Nc1ncn([C@H]2C[C@H](O)[C@@H](CO)O2)c(=O)n1` [Decitabine, decitabine] was run?
Answer: The IC50 was > 10 µM.

Question: And the GI50 ([3]; ALL)?
Answer: Its GI50 is 0.49 µM.

Question: What about the GI50 ([3]; Homo sapiens, ALL) of the same molecule?
Answer: The GI50 was 0.506 µM.

Question: What about the GI50 [4] of the same molecule?
Answer: The GI50 was > 22.4 µM.

Question: What about the GI50 ([5]; OCI-Ly3, 48 h) of the same molecule?
Answer: The GI50 was > 4 µM.

Question: What about the GI50 [6] of the same molecule?
Answer: Its GI50 is > 4 µM.

Question: And the GI50 ([7]; MV4-11, 48 h)?
Answer: Its GI50 is > 50 µM.

Question: And the GI50 ([1]; Homo sapiens, OCI-AML2, 48 h)?
Answer: The GI50 was > 10 µM.

Question: `C[S+](CC[C@H](N)C(=O)[O-])C[C@H]1O[C@@H](n2cnc3c(N)ncnc32)[C@H](O)[C@@H]1O` (stereo partly drawn) [SAM, S-adenosyl-L-methionine] was tested. Which Kd [9] did it give?
Answer: The Kd was 15 to 20 µM.

Question: For `COc1cc2c(NC3CCN(C(C)C)CC3)nc(C3CCCCC3)nc2cc1OCCCN1CCCC1` [UNC-0638], which GI50 [3, 10] is on record?
Answer: The GI50 was 4.73 µM.

Question: And the GI50 [3, 11]?
Answer: Its GI50 is 4.7 µM.

Question: And the GI50 ([4]; ALL, read-out: GI50)?
Answer: Its GI50 is 5.18 µM.

Question: And the GI50 [5, 12]?
Answer: Its GI50 is > 4 µM.

Question: What about the GI50 [6, 13] of the same molecule?
Answer: The GI50 was > 4 µM.

Question: What about the GI50 [7, 14] of the same molecule?
Answer: The GI50 was 12 µM.

Question: And the GI50 [1, 15]?
Answer: Its GI50 is 7.33 µM.
